# According to the supplement of paper PMC10307832:
# Assays:
# Experiment in all cases: relative viability (nuclei count vs DMSO), 5 days (fraction); higher = more cells survive
# Nelarabine + Foretinib = compound: COc1nc(N)nc2c1ncn2[C@@H]1O[C@H](CO)[C@@H](O)[C@@H]1O [Nelarabine] + COc1cc2c(Oc3ccc(NC(=O)C4(C(=O)Nc5ccc(F)cc5)CC4)cc3F)ccnc2cc1OCCCN1CCOCC1 [Foretinib] (partner 0.25 µM)
# Outline: (§1)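 Lung cancer cell lines were pin-tool dosed in 1536-well plates on the day after seeding, with either a lone drug or a fixed anchor-drug dose plus five library-drug doses (not always all listed) in √10 steps. Nuclei were counted on 4× images after 5 days. Relative viability is the ratio of treated-well to vehicle-well nuclei counts, with each value a median of duplicate plates.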
# Adavosertib + Alpelisib = compound: C=CCn1c(=O)c2cnc(Nc3ccc(N4CCN(C)CC4)cc3)nc2n1-c1cccc(C(C)(C)O)n1 [Adavosertib] + Cc1nc(NC(=O)N2CCC[C@H]2C(N)=O)sc1-c1ccnc(C(C)(C)C(F)(F)F)c1 [Alpelisib] (partner 2 µM)
# Outline: as §1
# Nelarabine + Phenformin = compound: COc1nc(N)nc2c1ncn2[C@@H]1O[C@H](CO)[C@@H](O)[C@@H]1O [Nelarabine] + N=C(N)NC(=N)NCCc1ccccc1 [Phenformin] (partner 250 µM)
# Outline: as §1
# Adavosertib + Dasatinib = compound: C=CCn1c(=O)c2cnc(Nc3ccc(N4CCN(C)CC4)cc3)nc2n1-c1cccc(C(C)(C)O)n1 [Adavosertib] + Cc1nc(Nc2ncc(C(=O)Nc3c(C)cccc3Cl)s2)cc(N2CCN(CCO)CC2)n1 [Dasatinib] (partner 0.075 µM)
# Outline: as §1
Cell Line,relative viability (Nelarabine + Foretinib; first compound 0.01 µM),relative viability (Nelarabine + Foretinib; first compound 0.03162 µM),relative viability (Nelarabine + Foretinib; first compound 0.1 µM),relative viability (Nelarabine + Foretinib; first compound 0.3162 µM),relative viability (Nelarabine + Foretinib; first compound 1 µM),relative viability (Adavosertib + Alpelisib; first compound 0.01 µM),relative viability (Adavosertib + Alpelisib; first compound 0.03162 µM),relative viability (Adavosertib + Alpelisib; first compound 0.1 µM),relative viability (Adavosertib + Alpelisib; first compound 0.3162 µM),relative viability (Nelarabine + Phenformin; first compound 0.01 µM),relative viability (Nelarabine + Phenformin; first compound 0.03162 µM),relative viability (Nelarabine + Phenformin; first compound 0.1 µM),relative viability (Nelarabine + Phenformin; first compound 0.3162 µM),relative viability (Nelarabine + Phenformin; first compound 1 µM),relative viability (Adavosertib + Dasatinib; first compound 0.01 µM),relative viability (Adavosertib + Dasatinib; first compound 0.03162 µM),relative viability (Adavosertib + Dasatinib; first compound 0.1 µM),relative viability (Adavosertib + Dasatinib; first compound 0.3162 µM)
NCI-H520,1.06,0.799,0.95,0.789,0.676,0.884,0.887,1.03,0.717,0.811,0.343,0.638,0.806,0.513,0.194,0.181,0.183,0.217
HCC-44,,,,,,0.881,0.864,0.813,0.958,0.194,0.157,0.173,0.167,0.185,,,,
NCI-H2087,1.43,0.917,1.06,1.01,1.11,1.11,1.07,1.2,0.944,0.577,0.408,0.397,0.457,0.569,0.901,0.786,0.893,0.845
CAL-12T,1.3,1.14,1.15,1.09,1.04,1.09,1.27,1.2,0.929,0.664,0.575,0.533,0.582,0.621,0.501,0.416,0.438,0.222
NCI-H1355,1.05,0.984,0.947,1,1.03,0.878,0.84,0.777,0.751,0.442,0.413,0.418,0.433,0.455,0.673,0.643,0.696,0.569
HARA,1,1.07,0.834,1.23,1.03,0.746,0.858,0.814,0.63,0.62,0.488,0.422,0.579,0.505,0.258,0.249,0.283,0.338
NCI-H2085,0.96,1.04,0.76,0.881,1.06,1.02,0.993,0.969,0.975,0.73,0.703,0.669,0.69,0.767,0.257,0.266,0.229,0.279
IA-LM,1.37,1.01,1.23,1.18,1.27,0.649,0.731,0.833,0.931,,,,,,,,,
LCLC-103H,0.958,0.825,0.72,0.815,0.79,0.973,0.926,1.04,0.94,0.329,0.283,0.333,0.328,0.345,0.422,0.44,0.435,0.356
NCI-H2405,1.07,1.04,0.95,0.988,1.03,0.765,0.878,0.874,0.764,0.385,0.395,0.357,0.383,0.26,0.198,0.217,0.183,0.206
NCI-H1666,1.05,1.02,0.918,1,1.03,0.85,0.889,0.934,0.796,0.576,0.607,0.569,0.536,0.606,0.754,0.821,0.854,0.733
Calu-6,1.01,0.826,0.9,0.959,0.928,0.983,0.856,0.94,0.793,,,,,,,,,
BEN,0.583,0.744,0.655,0.638,0.556,1.24,1.09,1.04,1.18,0.264,0.269,0.276,0.221,0.273,0.294,0.295,0.297,0.302
201T,1.46,,1.04,1.03,1.05,0.986,1.03,0.94,0.962,0.459,0.416,0.451,0.433,0.417,0.544,0.524,0.568,0.463
NCI-H322M,0.972,0.948,0.816,0.939,0.976,,0.77,0.711,0.543,0.819,0.716,0.762,0.776,0.745,0.238,0.225,0.247,0.255
NCI-H1792,,,,,,0.67,0.649,0.697,0.48,0.211,0.4,0.261,0.3,0.323,,0.753,0.942,0.865
NCI-H358,0.854,0.666,0.622,0.854,0.762,0.831,0.769,0.693,0.336,0.441,0.308,0.305,0.356,0.377,0.159,0.144,0.149,0.139
NCI-H2347,0.838,,0.528,0.65,0.89,1.06,1.02,1.04,0.975,0.45,0.574,0.379,0.445,0.381,0.378,0.304,0.267,0.258
NCI-H1793,0.84,0.747,0.709,0.731,0.713,0.746,0.6,0.752,0.637,0.45,0.366,0.315,0.472,0.406,0.392,0.308,0.439,0.36
LU99A,0.934,0.683,0.706,0.801,0.889,0.48,0.511,0.476,0.319,0.88,0.767,0.837,0.864,0.854,0.472,0.51,0.532,0.355
